Values joined by “and” are separate entries in the source; they are usually repeats but may differ in a detail not shown here. Equal values may be shown once.
Experiments:
human GPR119 [1] = target: T1, human GPR119 (Homo sapiens, UniProt Q8TDV5); experiment: HTRF cAMP cell-based GPR119 agonist assay (hGPR119 HEK-CRE beta-lactamase cells); parameters: host or cells: hGPR119-HEK293-CRE-beta-lactamase cells; conditions: HTRF cAMP, hGPR119 HEK-CRE beta-lactamase cells; each line is a separate determination; read-out: Human cAMP Functional EC50
T1 sequence (Q8TDV5 1-335): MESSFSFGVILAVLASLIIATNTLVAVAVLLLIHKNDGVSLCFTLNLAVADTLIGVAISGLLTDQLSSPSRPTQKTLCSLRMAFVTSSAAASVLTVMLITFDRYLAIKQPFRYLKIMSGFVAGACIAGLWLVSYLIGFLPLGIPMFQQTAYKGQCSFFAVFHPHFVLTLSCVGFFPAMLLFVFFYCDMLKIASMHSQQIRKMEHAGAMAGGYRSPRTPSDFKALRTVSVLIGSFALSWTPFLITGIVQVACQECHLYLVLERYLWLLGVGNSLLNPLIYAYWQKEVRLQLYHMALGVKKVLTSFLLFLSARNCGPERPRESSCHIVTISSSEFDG
Protocol: GPR119 agonist activity was also determined with a cell-based assay utilizing an HTRF (Homogeneous Time-Resolved Fluorescence) cAMP detection kit (cAMP dynamic 2 Assay Kit; Cis Bio cat #62AM4PEC) that measures cAMP levels in the cell. The method is a competitive immunoassay between native cAMP produced by the cells and the cAMP labeled with the dye d2. The tracer binding is visualized by a Mab anti-cAMP labeled with Cryptate. The specific signal (i.e. energy transfer) is inversely proportional to the concentration of cAMP in either standard or sample.
Specifically, hGPR119HEK-CRE beta-lactamase cells (Invitrogen 2.5×10^7/mL; the same cell line used in the beta-lactamase assay described above) are removed from cryopreservation and diluted in growth medium (Dulbecco's modified Eagle medium high glucose (DMEM; Gibco Cat #11995-065), 1% charcoal dextran treated fetal bovine serum (CD serum; HyClone Cat # SH30068.03), 1×MEM Nonessential amino acids (Gibco Cat #15630-080) and 25 mM HEPES pH 7.0 (Gibco Cat #15630-080)). The cell concentration was adjusted to 1.5×10^5 cells/mL and 30 mLs of this suspension was added to a T-175 flask and incubated at 37 degrees Celsius in a humidified environment in 5% carbon dioxide. […]
Varying concentrations of each compound to be tested were diluted in assay buffer containing 3-isobutyl-1-methylxanthin (IBMX; Sigma cat #15879) and added to the assay plate wells in a volume of 2 microL (final IBMX concentration was 400 microM and final DMSO concentration was 0.58%). […] The plates were then incubated at room temperature and after 60 minutes, changes in the HTRF signal were read with an Envision 2104 multilabel plate reader using excitation of 330 nm and emissions of 615 and 665 nm. Raw data were converted to nM cAMP by interpolation from a cAMP standard curve (as described in the manufacturer's assay protocol) and EC50 determinations were made from an agonist-response curves analyzed with a curve fitting program using a 4-paramter logistic dose response equation.

human GPR119 [2] = target: T2, human GPR119 (Homo sapiens, UniProt Q8TDV5); experiment: DiscoverX PathHunter β-arrestin cell assay (U2OS hGPR119 β-arrestin cell line); assay type: cell-based; conditions: U2OS hGPR119 β-arrestin cells; each line is a separate determination; read-out: Human B-arrestin Functional EC50
T2 construct: host or cells: U2OS hGPR119 β-arrestin cell line
Protocol: GPR119 agonist activity was also determined with a cell-based assay utilizing DiscoverX PathHunter β-arrestin cell assay technology and their U2OS hGPR119 β-arrestin cell line (DiscoverX Cat #93-0356 C3). In this assay, agonist activation is determined by measuring agonist-induced interaction of β-arrestin with activated GPR119. A small, 42 amino acid enzyme fragment, called ProLink was appended to the C-terminus of GPR119. Arrestin was fused to the larger enzyme fragment, termed EA (Enzyme Acceptor). […]
After 16 hours (overnight) the assay plates were removed from the incubator and varying concentrations of each compound to be tested (diluted in assay buffer (1×HBSS+CaCl2+MgCl2 (Gibco Cat #14025-092), 20 mM HEPES pH 7.0 (Gibco Cat #15630-080) and 0.1% BSA (Sigma Cat # A9576)) were added to the assay plate wells in a volume of 5 microliters (final DMSO concentration was 0.5%). After a 90 minute incubation at 37 degrees Celsius in a humidified environment in 5% carbon dioxide, 12 microliters of Galacton Star β-galactosidase substrate (PathHunter Detection Kit (DiscoveRx Cat #93-0001); prepared as described in the manufacturers assay protocol) was added to each well of the assay plate. The plates were incubated at room temperature and after 60 minutes, changes in the luminescence were read with an Envision 2104 multilabel plate reader at 0.1 seconds per well. […]
T2 sequence (P32121 whole entry partner, one chain of several): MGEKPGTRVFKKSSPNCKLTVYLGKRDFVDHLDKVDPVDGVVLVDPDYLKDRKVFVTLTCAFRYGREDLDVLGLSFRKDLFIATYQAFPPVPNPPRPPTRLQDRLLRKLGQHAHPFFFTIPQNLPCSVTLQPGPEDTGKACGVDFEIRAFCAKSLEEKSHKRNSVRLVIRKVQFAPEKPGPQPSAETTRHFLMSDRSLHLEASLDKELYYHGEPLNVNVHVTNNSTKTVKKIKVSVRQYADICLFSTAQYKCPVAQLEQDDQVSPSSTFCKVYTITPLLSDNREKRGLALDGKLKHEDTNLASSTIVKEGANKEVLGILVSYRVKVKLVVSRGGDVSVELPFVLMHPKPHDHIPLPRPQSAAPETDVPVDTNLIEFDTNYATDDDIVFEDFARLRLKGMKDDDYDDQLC

| Structure (SMILES) | EC50 (human GPR119 [1]) | EC50 (human GPR119 [2]) |
| --- | --- | --- |
| Cc1c(O[C@@H]2[C@@H]3COC[C@H]2CN(C(=O)OC2(C)CC2)C3)ncnc1N1CCc2ncccc21 [Example 28, 1-Methylcyclopropyl (9-syn)-9-{[6-(2,3-dihydro-1H-pyrrolo[3,2-b]pyridin-1-yl)-5-methylpyrimidin-4-yl]oxy}-3-oxa-7-azabicyclo[3.3.1]nonane-7-carboxylate] | 370 nM and 194 nM and 88 nM | 3.79 nM |
| Cc1c(O[C@@H]2[C@@H]3COC[C@H]2CN(C(=O)OC(C)C)C3)ncnc1N1CCc2cc(S(C)(=O)=O)ccc21 [Example 23, Isopropyl (9-syn)-9-({5-methyl-6-[5-(methylsulfonyl)-2,3-dihydro-1H-indol-1-yl]pyrimidin-4-yl}oxy)-3-oxa-7-azabicyclo[3.3.1]nonane-7-carboxylate] | 311 nM and 982 nM and 1040 nM and 1330 nM | 37 nM |
